Source: the Deep4Chem optical property database
Several values for one entry are separate records, joined by “and”; a condition that tells them apart may be missing. Identical values can stand only once.

Assay: solvent given as SMILES

**Q.** For `CCC(CC)n1c2ccccc2c2cc3c(cc21)c1ccccc1n3C(CC)CC`, which fluorescence lifetime (in ClC(Cl)Cl) is on record?
**A.** 3.05 ns

**Q.** Which fluorescence lifetime (in CCO) does the source give for `CCN(CC)c1ccc2cc(C#N)/c(=N\C(=O)c3ccc(F)cc3)oc2c1` here?
**A.** 3 ns

**Q.** What about the fluorescence lifetime (in ClCCl) of the same compound?
**A.** 3.8 ns

**Q.** Which fluorescence lifetime (in C1CCCCC1) does the source give for `CCN(CC)c1ccc2cc(-c3nc4ccccc4s3)c(=O)oc2c1` here?
**A.** 2.38 ns

**Q.** What about the fluorescence lifetime (in CC1CCCCC1) of the same compound?
**A.** 2.32 ns

**Q.** And the fluorescence lifetime (in CC#N)?
**A.** 3.2 ns and 2.55 ns

**Q.** And the fluorescence lifetime (in CCC(C)CC)?
**A.** 2.38 ns

**Q.** And the fluorescence lifetime (in CCCCCC)?
**A.** 2.37 ns

**Q.** What about the fluorescence lifetime (in CCO) of the same compound?
**A.** 2.5 ns

**Q.** And the fluorescence lifetime (in CCOC(C)=O)?
**A.** 2.46 ns

**Q.** What does the source list for `CCCCCCC(CCCCCC)N1C(=O)c2cccc3c(-c4cc(OC)c(OC)c(OC)c4)ccc(c23)C1=O`?
**A.** fluorescence lifetime (in CCCCCC): 2.03 ns; fluorescence lifetime (in CCCCCCCCCCCCCC): 2.78 ns; fluorescence lifetime (in CCCCCCCCCCCO): 1.75 ns; fluorescence lifetime (in CCCCO): 0.208 ns; fluorescence lifetime (in CN(C)C=O): 0.119 ns; fluorescence lifetime (in Cc1ccccc1): 5.4 ns; fluorescence lifetime (in ClC(Cl)Cl): 6.62 ns

**Q.** Which fluorescence lifetime (in ClCCl) does the source give for `CCN(CC)c1ccc2cc(-c3nc4c5ccccc5c5ccccc5c4n3-c3ccc(C(C)(C)C)cc3)c(=O)oc2c1` here?
**A.** 12.6 ns

**Q.** Which results are given for `COc1cc2cc(OC)c(C#Cc3ccc([N+](=O)[O-])cc3)cc2cc1C#Cc1ccc([N+](=O)[O-])cc1`?
**A.** fluorescence lifetime (in C1CCOC1): 0.25 ns; fluorescence lifetime (in ClC(Cl)Cl): 0.9 ns; fluorescence lifetime (in ClCCl): 0.38 ns

**Q.** For `Cc1ccc(C2=C3C=CC(C#Cc4ccccc4)=[N+]3[B-](F)(F)n3c(C#Cc4ccccc4)ccc32)cc1`, which fluorescence lifetime (in C1CCCCC1) is on record?
**A.** 6.58 ns

**Q.** And the fluorescence lifetime (in C1CCOC1)?
**A.** 6.62 ns

**Q.** And the fluorescence lifetime (in C1COCCO1)?
**A.** 6.44 ns

**Q.** And the fluorescence lifetime (in CCOC(C)=O)?
**A.** 6.74 ns

**Q.** What about the fluorescence lifetime (in CO) of the same compound?
**A.** 6.51 ns

**Q.** What about the fluorescence lifetime (in Cc1ccccc1) of the same compound?
**A.** 6.18 ns

**Q.** What about the fluorescence lifetime (in ClC(Cl)Cl) of the same compound?
**A.** 6.66 ns

**Q.** What does the source list for `Cc1ccc2sc3cc(CCC(=O)O)ccc3c(=O)c2c1`?
**A.** fluorescence lifetime (in CC#N): 0.07 ns; fluorescence lifetime (in CC(C)O): 1.3 ns; fluorescence lifetime (in CCO): 1.7 ns; fluorescence lifetime (in CO): 2.55 ns; fluorescence lifetime (in OCCO): 4.6 ns

**Q.** Which results are given for `c1ccc2nc3cccc(-c4ccc(-n5c6ccccc6c6ccccc65)cc4)c3cc2c1`?
**A.** fluorescence lifetime (in CC#N): 10.6 ns; fluorescence lifetime (in CCCCCC): 0.2 ns; fluorescence lifetime (in CCOCC): 0.2 ns; fluorescence lifetime (in ClCCl): 6.68 ns

**Q.** With `CCCCC(CC)CN1C(=O)c2cc(Oc3ccc(OC)cc3)c3c4c(Cl)cc5c6c(cc(Cl)c(c7c(Oc8ccc(OC)cc8)cc(c2c37)C1=O)c64)C(=O)N(c1c(C(C)C)cccc1C(C)C)C5=O` (stereo not drawn) as the compound, how does the fluorescence lifetime (in Cc1ccccc1) read?
**A.** 0.56 ns
